Assay results from patent publication US12096772B2, “Herbicidal compositions” (SYNGENTA CROP PROTECTION AG, priority 2022, dated 2024).

Test system: Amaranthus palmeri (AMAPA)
Assay: Post-emergence greenhouse percent control of Amaranthus palmeri
Assay type: in vivo
Conditions: herbicide alone; for Observed control 7DAA: 7 days after application; for Observed control 14DAA: 14 days after application; for Observed control 21DAA: 21 days after application
Description: Seeds of Amaranthus palmeri (AMAPA) were sown in vero beach potting soil and grown in a greenhouse. The herbicides, alone and in combination, were applied post-emergence when the weeds were 3 to 4-inches along with adjuvants 2.5% v/v AMSOL® and 1% v/v AgriDex® using a spray TT110015 nozzle providing 15 gallons/acre. Percent control evaluations were performed at 7, 14, and 21 days after application.
Expected action was calculated by the Colby formula.

For CS(=O)(=O)c1ccc(C(=O)C2C(=O)CCCC2=O)c([N+](=O)[O-])c1 [Mesotrione, mesotrione], the “Observed control 7DAA” value (10 g ai/ha) was 75%, the “Observed control 14DAA” value (10 g ai/ha) was 63% and the “Observed control 21DAA” value (10 g ai/ha) was 62%.

O=c1cc(Cl)[nH]nc1-c1ccccc1 [Pyridafol, pyridafol] was tested, and the “Observed control 7DAA” value (2.5 g ai/ha) was 0%, the “Observed control 14DAA” value (2.5 g ai/ha) was 0% and the “Observed control 21DAA” value (2.5 g ai/ha) was 0%. For the same molecule, the “Observed control 7DAA” value (5 g ai/ha) was 0%, the “Observed control 14DAA” value (5 g ai/ha) was 0% and the “Observed control 21DAA” value (5 g ai/ha) was 0%. The “Observed control 7DAA” value (10 g ai/ha) was 0%, the “Observed control 14DAA” value (10 g ai/ha) was 0% and the “Observed control 21DAA” value (10 g ai/ha) was 0%. The “Observed control 7DAA” value (27 g ai/ha) was 5%, the “Observed control 14DAA” value (27 g ai/ha) was 2% and the “Observed control 21DAA” value (27 g ai/ha) was 0%. The “Observed control 7DAA” value (57 g ai/ha) was 17%, the “Observed control 14DAA” value (57 g ai/ha) was 10% and the “Observed control 21DAA” value (57 g ai/ha) was 3%. The “Observed control 7DAA” value (87 g ai/ha) was 23%, the “Observed control 14DAA” value (87 g ai/ha) was 15% and the “Observed control 21DAA” value (87 g ai/ha) was 13%. The “Observed control 7DAA” value (117 g ai/ha) was 23%, the “Observed control 14DAA” value (117 g ai/ha) was 17% and the “Observed control 21DAA” value (117 g ai/ha) was 7%.

In the case of bicyclopyrone, the “Observed control 7DAA” value (10 g ai/ha) is reported as 72%, the “Observed control 14DAA” value (10 g ai/ha) is reported as 60% and the “Observed control 21DAA” value (10 g ai/ha) is reported as 57%.
